Measurements published in US10814010B2, “FOXC2 inhibitor and methods of use thereof” (The Board of Regents of The University of Texas System, priority 2018, dated 2020).
pEC50: −log10 of the molar value.

Legend:
PC3 cells = experiment: MTT cell viability assay, PC3; type: cell-based
Excerpt: Inhibition of EMT in CRPC could lead to a new form of therapeutics to aid once androgen-independence is achieved. However, in order for MC-1-F2 to be considered an effective chemotherapeutic agent, its EC50 in prostate cancer needed to be determined as well as how it compares to other chemotherapeutic agents on the market and whether it is able to inhibit chemoresistance or lower the sensitivity of CRPC to commercially available drugs. In order to determine the EC50 of MC-1-F2, an MTT assay on cell viability was performed in both DU145 and PC3. […] These doses are higher than those encountered with breast cancer cell lines. This is most likely due to the lower FOXC2 expression levels founds in prostate cell lines when compared to the breast cell lines.
(§1) Cell viability was assessed by MTT (3-(4,5-Dimethylthiazol-2-yl)-2,5-Diphenyltetrazolium Bromide) assay 5,000 cells were seeded on a 96-well cell culture plate and were incubated for at least 24 hours prior to drug treatment. The MTT reagent (Fisher Scientific) was added to the culture medium 3 hours prior to the end of compound incubation. The reaction took place in the 37° C. incubator with 5% CO2 for 3 hours. Cell culture medium was then removed from the wells. Cells with the insoluble purple formazan were lysed with DMSO for 10 mins at room temperature, 200 μL per well. Absorbance was read at 570 nm using a plate reader.

DU145 cells = experiment: MTT cell viability assay, DU145; type: cell-based; conditions: single agent
Experimental: In order to determine the EC50 of MC-1-F2, an MTT assay on cell viability was performed in both DU145 and PC3.
as §1

Row | Compound | effect on cell viability (PC3 cells; single agent) | effect on cell viability (DU145 cells) | pEC50 (PC3 cells; Homo sapiens, PC-3, single agent)
1 | CNC(=O)c1ccc(N2C(=S)N(c3ccc(C#N)c(C(F)(F)F)c3)C(=O)C2(C)C)cc1F [Enzalutamide, reference compound] | no effect | no effect | –
2 | CC(=O)O[C@@]12CO[C@@H]1C[C@H](O)[C@@]1(C)C(=O)[C@H](O)C3=C(C)[C@@H](OC(=O)[C@H](O)[C@@H](NC(=O)OC(C)(C)C)c4ccccc4)C[C@@](O)([C@@H](OC(=O)c4ccccc4)[C@H]21)C3(C)C [docetaxel] | – | – | 8.12
